Structures are written as SMILES.

Data on one molecule can be found in patent US20250152616A1, “COMPOSITIONS FOR AND METHODS OF TREATING, PREVENTING, AND/OR MITIGATING PAIN” (Duke University, priority 2022, published 2025).

For assay [1], the system named is bone marrow mesenchymal stromal cells (BM-MSCs). As to the kind of experiment: RT-qPCR of osteogenic genes in bone marrow MSCs. The assay is classed as cell-based, mouse. The following applies: adenosine 30 μg/mL, 14 days, absence of osteogenic induction medium. The procedure: MSCs were isolated as previously described with some modifications (Shih Y B, et al. (2019) Sci Adv. 5:eaax1387). Briefly, the femurs, tibiae, vertebrae of mice were harvested, crushed with pestle and mortar in harvest buffer (1% v/v FBS in PBS) to release bone marrow (BM) tissue, filtered through a 40-μm cell strainer, and centrifuged at 200 rcf. Cells were seeded in a 24-well plate at a cell density of 1 million cells/cm^2 in growth media (GM) containing α-MEM, FBS (10% v/v, ThermoFisher, Cat #16000044), penicillin/streptomycin (10000 U/mL; 1% v/v) and cultured in humidified incubator (37° C., 5% CO2). The medium was replaced after 3 days and further cultured for 6 days before passage. For passaging, cells were incubated in 0.25% trypsin-EDTA for 2 min at 37° C., detached with a cell scraper, neutralized by using GM, centrifuged, and sub-cultured at a density of 8000 cells/cm^2. All experiments were performed between 1-2 passage. Osteogenic medium (OM) was prepared by supplementing GM with 10 mM β-glycerophosphate (MilliporeSigma, Cat #G9422), 50 μM ascorbic acid-2-phosphate (MilliporeSigma, Cat #A8960), and 100 nM dexamethasone (MilliporeSigma, Cat #D4902).
Cells, DRG, or bone/marrow tissues were analyzed for gene expression by quantitative real-time polymerase chain reaction (RT-qPCR). Nucleic acids were extracted with TRIzol, phase-separated with chloroform, and precipitated in isopropanol. […] Quantitative PCR was performed with iTaq Universal SYBR green reagent (Bio-Rad, Cat #1725124) with denaturation at 95° C. for 30 sec for one cycle, and amplification (denaturation+annealing/extension) at 95° C. for 5 sec and 60° C. for 30 sec for 40 cycles on a polymerase chain reaction (PCR) cycler (Bio-Rad, CFX96 Touch). […]
The expression level of each target gene was normalized to the housekeeping gene and to their respective controls and presented as fold change expressed as 2^−ΔΔCt values. […]
On the technique in general: Real-time PCR tracks product formation cycle by cycle.

A further assay has as its system dissociated DRG neurons. As to the kind of experiment: Fura-2 calcium imaging of dissociated DRG neurons stimulated with capsaicin. The assay is classed as cell-based, mouse. The text has this: DRG were isolated from mice using a modified version of the previously described protocol (Perner C, et al. (2021) STAR Protoc. 2:100333). Briefly, mice were euthanized and dosed in 70% ethanol to prevent fur contamination. Mice were positioned prone, and an incision was made along the spine from the neck to the base of the tail. Under a dissecting microscope, the surrounding soft tissue of the spinal column was removed from the dorsal side by Friedman-Pearson Rongeurs (Fine Science Tools, Foster City, CA, Cat #16021-14) from the mid thoracic region to the lumbosacral joint. The vertebral bone surrounding the DRG was gently crushed and removed with rongeurs exposing the spinal cord. The DRG were carefully extracted near the foramen between the vertebral levels. L3 and L4 DRG were collected for analyses. Dissected DRG were placed directly into ice-cold DMEM-F12 medium (ThermoFisher, Cat #11320033) for in vitro culture, Trizol (ThermoFisher, Cat #15596018) for PCR analyses, or 4% PFA for histology. For cell culture experiments, collected DRG were digested in digestion solution comprised of collagenase type II (Worthington, Lakewood, NJ, Cat #LS004176) and dispase (1.5 mg/mL each) dissolved in DMEM/F12. DRG were agitated in a digestion solution on an orbital shaker at 60 rpm and 37° C. for 20 minutes and repeated thrice with fresh digestion solution. Next, the digestion solution was replaced with trypsin-EDTA (0.025%) in DMEM/F12 and incubated for an additional 15 min to disrupt the remaining cell-to-cell adhesions. The solution was then replaced with DMEM/F12 and FBS (1:3) to neutralize trypsin. DRG were triturated to create a cell suspension and gently layered onto 15% bovine serum albumin (BSA) solution without mixing and centrifuged for 6 min at 280 g with minimal acceleration and no deceleration to separate non-neuronal cells and debris (Owen D E, et al. (2012) Methods Mol Biol. 846:179-187). […]
Intracellular cytosolic Ca^2+ was evaluated by Fura-2 loaded DRG neurons (Khomula E V, et al. (2019) J Neurosci. 39:7061-7073). […]

Consider `Nc1ncnc2c1ncn2[C@@H]1O[C@H](CO)[C@@H](O)[C@H]1O` [adenosine], for which, in assay [1], the Ibsp gene expression result is “upregulated”, the Runx2 gene expression result is “upregulated” and the Sp7 gene expression result is listed as “upregulated”. For the same molecule, the “NGF-increased functional responses to capsaicin (Fura-2 average and peak intensity)” value with dissociated DRG neurons (NGF 200 ng/mL 1 day, adenosine 5 μM for 5 min, capsaicin 100 nM) was “attenuated”. Further, the “functional activity of DRG neurons (normalized peak intensity, calcium imaging)” value in the assay on dissociated DRG neurons (initial screening, two different concentrations of adenosine, capsaicin stimulation) is listed as “decreased”.
